Results published in patent US20260315564A1, “THE USE OF TP3 (THYMOPENTIN ANALOG) BY INCREASING THE ACTIVITY AND NUMBER OF T-CELLS INVOLVED IN THE DEFENSE MECHANISM OF THE IMMUNE SYSTEM OF MAMMALS, FOR THE PREVENTION OR TREATMENT OF DISEASES TO EXTEND THE AVERAGE LIFESPAN” (priority 2023, published 2026).
Marks after values point to notes of the source that are not given here. Residues, ends and D or L forms follow the SMILES beside them.

Assays:
[1] = system: Anti-BVVT-Ab (IgM); test: Anti-BVVT-Ab titers (IgM) in newborn rats after single treatment (hemagglutination); assay type: in vivo, Hannover Wistar rats (newborn); conditions: 1x/ip, n = 12, control 6.3 (TP5), 5.2 (TP3)
Method: Rats (Hannover Wistar) were treated (i.p.) within 6-12 hours after birth. Treatments after birth in a single session or in another examination • on the 7th day after the first treatment; • another group was vaccinated 3 times a week after the first day of […]. treatment • in a subsequent group treated over three weeks (9× in total) (10-3,10-5,10-7//10-9, 10-11,10-12, 10-13 M/animal, i.p). • in the fourth test series, the animals were treated with TP fragments at 0, 1, 2, 4, or 5 days of age. The rats were unanimously immunized on the 14th day after birth (1% BVVT with 0.5 ml cell suspension, i.p.). Immune responses were measured after 7 days on day 21 of the experiment.
Rats (Hannover Wistar) were treated (i.p.) within 6-12 hours after birth. Treatments after birth in a single session or in another examination • on the 7th day after the first treatment; • another group was vaccinated 3 times a week after the first day of treatment. • in a subsequent group, the treatments took place over three weeks (9× in total) (10-3,10-5,10-7//10-9, 10-11,10-12,10-13 M/animal, i.p.). • in the fourth test series, the animals were treated with TP fragments at 0, 1, 2, 4, or 5 days of age. The rats were randomly immunized on the 14th day after birth (1% BVVT with 0.5 ml cell suspension, i.p.). Immune responses were measured after 7 days on day 21 of the experiment. 1.2. Determination of anti-BVVT Ab titers (from rat blood samples ex vivo) • with the haemagglutination method (Takátsy and Fürész, 1955) on 96-well plates (Flow). 50 ul of 0.9% NaCl solution was added to each well. The sera (50 μl) were diluted by half dilution in 12 steps, mixed with 25 pμl 2% BVVT cell suspension, and incubated (1 hour at 37 °C). The hemagglutination titers of the sera are determined. Values expressed in logarithmic values refer to total agglutination.

[2] = system: Thy1+, Lyt 1+ (helper) and Lyt 2+ (suppressor) cells; test: Thy1+ cells and helper/suppressor (Lyt 1/Lyt 2) cell ratio in bone marrow and spleen of Balb/c nu/nu mice; assay type: in vivo; conditions: for Lyt 1/Lyt 2 (helper/suppressor cell ratio) / Thy1+ (%): 10^-5 M/mice/ip every other day for 3 weeks (9x)
Method: • D.1/Direct cytotoxicity test/for the detection of Thy, Lyt antigens (Fathman 1979, in Immunol Meth I. Eds. Lefkovits, Pernis, Acad Press, New York, pp. 212-213.) was used. Subpopulation ratios were determined from bone marrow cells, thymus, and spleen cells isolated from the lymphatic organs of mice. The cell suspensions (1.087-1.088 g/cm3) were centrifuged ona density gradient (2000 rpm, 20 minutes), and the cells were washed 3× with RPMI1640 medium containing 0.3% BSA, then adjusted to 107/ml. Thyl, Lyt 1, Lyt2 monoclonal antibodies (McAb/Ando I. (ICRF Human Tumor Immunol. UCM Med Sch. London) were obtained. 25 μl McAb and 25 ul cell suspension were incubated (60′, 40C1), after centrifugation (1250 rpm 10′), the cells were resuspended with 40 μul of diluted (1:50) rabbit complement, then incubated (370C, 60′). The cell suspensions were stained with 1:5 dilution of Eosin Y (Jansen). the ratio of live to non-living cells was determined.
n=8/group; Treatment: 10^-5 M/mice/ip every other day for 3 weeks (9×/ip.)

[3] = system: plaque-forming cells (PFC); test: Number of plaque-forming cells (PFC) in Balb/c nu/nu mice; assay type: in vivo; conditions: for number of plaque-forming cells (PFC): n = 8/group, control 55.7 (TP5), 53.0 (TP3)
Method: 1.3./Determination of the number of plaque-forming cells (PFC) (using rat spleen cells) The chopped splenocytes were placed in a culture medium (Parker 199) and then shaken with a shaker for 1 minute. The cells were suctioned from the surface of the rapidly settling tissue debris. Red blood cells were removed osmotically. Cell suspensions were adjusted to 107/ml. The cell suspensions were mixed with a 15% BVVT cell suspension in a ratio of 2:1. PFC was determined with the mixture using a modified chamber technique according to Channingham et al., 1966). Before filling the chamber, 50 μl of fresh diluted guinea pig serum (1:20) was added. The chambers (2-2/slide) were incubated (370C 45′) after sealing with paraffin, the formed plaques were counted under a microscope (at 400× magnification) within 2 hours Marker tests related to the rejection reaction of an adult thymus-depleted mouse skin graft 1.4./Rejection of skin transplants in nude mice after treatment with TP fragments (Snell et al., Transplantation 5, 492, 1967).
Mice were treated for 4 weeks 3 times a week (every other day) with TP fragments (10-9, 10-8, 10-7//10-3, 10-2, 10-1 M/animal ip. (Veys et al., 1983) at the end of the treatments ([…]), the mice were immunized (with 0.5 ml 1% BVVT suspension ip. The immune response was expressed in antibody titers as above).

[4] = system: peritoneal macrophages; test: Phagocytic function of peritoneal macrophages ex vivo in CFLP outbred mice (CY-immunosuppressed); conditions: for macrophage phagocytosis ex vivo: CY-treated mice, n = 15, untreated control 194.5, CY 111.5
Text: 6.2./Examination of the Effect on the Phagocytic Function of Peritoneal Macrophages CFLP Outbred in Mice
Macrophage phagocytosis ex vivo (X=yeast/100 cells)

[5] = system: DTH reaction (PPD); test: Delayed-type hypersensitivity (DTH) reaction in guinea pigs; assay type: in vivo; conditions: n = 12/group, PPD 217.9

CC(C)[C@H](NC(=O)[C@H](CC(=O)O)NC(=O)[C@H](CCCCN)NC(=O)[C@@H](N)CCCN=C(N)N)C(=O)N[C@@H](Cc1ccc(O)cc1)C(=O)O [TP5] (H-RKDVY-OH)
Anti-BVVT-Ab titers (IgM) ([1]; 10^-3 M/animal): 7.6 2 log | Anti-BVVT-Ab titers (IgM) ([1]; 10^-4 M/animal): 8.1* 2 log | Anti-BVVT-Ab titers (IgM) ([1]; 10^-5 M/animal): 8.6* 2 log | Anti-BVVT-Ab titers (IgM) ([1]; 10^-6 M/animal): 8.5* 2 log | Anti-BVVT-Ab titers (IgM) ([1]; 10^-9 M/animal): 8.0* 2 log | Anti-BVVT-Ab titers (IgM) ([1]; 10^-11 M/animal): 7.7 2 log | Anti-BVVT-Ab titers (IgM) ([1]; 10^-13 M/animal): 7.0 2 log | Lyt 1/Lyt 2 (helper/suppressor cell ratio) ([2]; bone marrow (Csontvelő), control 0.97): 1.95 | Thy1+ (%) ([2]; bone marrow (Csontvelő), control 3.7): 47.3% | Lyt 1/Lyt 2 (helper/suppressor cell ratio) ([2]; spleen (Lép), control 1.10): 2.48 | Thy1+ (%) ([2]; spleen (Lép), control 5.4): 71.0% | change in the spleen ([2]; spleen, 10^-5 M/mice/ip, 9x): 130% | number of plaque-forming cells (PFC) ([3]; 10^-1 M/mouse (M/eger)): 76.5* | number of plaque-forming cells (PFC) ([3]; 10^-2 M/mouse (M/eger)): 73.0* | number of plaque-forming cells (PFC) ([3]; 10^-3 M/mouse (M/eger)): 67.4 | increase in number of PFC cells ([3]; 10^-3 M/mouse/i.p.): 35% | number of plaque-forming cells (PFC) ([3]; 10^-6 M/mouse (M/eger)): 72.5* | number of plaque-forming cells (PFC) ([3]; 10^-7 M/mouse (M/eger)): 71.0* | number of plaque-forming cells (PFC) ([3]; 10^-8 M/mouse (M/eger)): 9.5 | phagocytic activity of macrophages ([4]; CY immunosuppression, 1.0 mg/kg/sc (TP3), in words): ineffective | macrophage phagocytosis ex vivo ([4]; TP dose 0.1 (mg/kg/sc)): 149.6 yeast/100 cells | macrophage phagocytosis ex vivo ([4]; TP dose 1.0 (mg/kg/sc)): 123.1 yeast/100 cells | macrophage phagocytosis ex vivo ([4]; TP dose 10.0 (mg/kg/sc)): 95.6 yeast/100 cells | DTH reaction, skin redness (bőrpir) ([5]; 0.1 mg/kg/s.c.): 127.7* mm/π | DTH reaction, skin redness (bőrpir) ([5]; 1.0 mg/kg/s.c.): 158.1 mm/π | DTH reaction, skin redness (bőrpir) ([5]; 20.0 mg/kg/s.c.): 194.6 mm/π
